Test results as given in the supplement of paper PMC11208160.

Assay: recombinant barcode read abundance after kanamycin selection (control-corrected) (log10(CPM+1)); higher = more efficient recombination; sequences stand for … in AGTGCAGAGAAAATCGGCCAGTTTTCTCTGCCTGCAGTCCGCATGCCGT…AGATTTATGCAGCGGACTGCCTTTCTCCCAAAGTGATAAACCGGACAGTATCATGGACCGGTTTTCCCGGTAATCCGTATTTGCAAGGTTGGTTTCACT; site = the 11-nt target
Method in brief: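 A vector carrying a T7-inducible recombinase and the last 73 bp of the bridge RNA received, by Gibson cloning, oligos encoding a promoter, target, barcode and the first 104 bridge RNA bases under J23119. The pooled constructs entered E. coli together with a donor plasmid by electroporation. Selection used chloramphenicol/ampicillin/kanamycin with 0.1 mM IPTG, with chloramphenicol/ampicillin LB agar as the control, each in two replicates. Recombination efficiency is the averaged, control-corrected counts-per-million of barcodes at recombinant junctions, reported as log10(CPM+1).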
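Further: IS621 recombinase and bridge RNA in Escherichia coli cells.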

Sequence	recombinant barcode read abundance (log10)
TGGCGTCCTTGGGTTCTAACCTGTTGCCT (site TGGGGTCCTAG)	0.0381
TGGCGTCCTTGGGTTCTAACCTGTTGCCT (site TGGTGTCCTAG)	0.116
TGGGACTCTTGGGTTCTAACCTGTTGCCT (site TGAGACTCTAG)	2.44
TGGGACTCTTGGGTTCTAACCTGTTGCCT (site TGCGACTCTAG)	0.00712
TGGGACTCTTGGGTTCTAACCTGTTGCCT (site TGGGACTCTAG)	2.64
TGGGACTCTTGGGTTCTAACCTGTTGCCT (site TGTGACTCTAG)	0.108
TGGGCACCTTGGGTTCTAACCTGTTGCTT (site GGGGCACCTTA)	0.175
TGGGCACCTTGGGTTCTAACCTGTTGCTT (site TGGGCACCTAA)	1.37
TGGGGTACTTGGGTTCTAACCTGTTGCCT (site TGGAGTACTAG)	0.141
TGGGGTACTTGGGTTCTAACCTGTTGCCT (site TGGCGTACTAG)	0.097
TGGGGTACTTGGGTTCTAACCTGTTGCCT (site TGGGGTACTAG)	1.11
TGGGGTACTTGGGTTCTAACCTGTTGCCT (site TGGTGTACTAG)	0.177
TGGGTCCCTTGGGTTCTAACCTGTTGCTT (site TGAGTCCCTTA)	0.272
TGGGTCCCTTGGGTTCTAACCTGTTGCTT (site TGGGTCCCTAA)	2.1
TGGTACGCTTGGGTTCTAACCTGTTGCCT (site TGGTACGCTAG)	1.45
TGGTACGCTTGGGTTCTAACCTGTTGCCT (site TGGTCCGCTAG)	0.235
TGGTACGCTTGGGTTCTAACCTGTTGCCT (site TGGTGCGCTAG)	0.15
TGGTACGCTTGGGTTCTAACCTGTTGCCT (site TGGTTCGCTAG)	0.24
TGGTGCCCTTGGGTTCTAACCTGTTGCGG (site TGCTTCCCTCC)	0.109
TGGTGCCCTTGGGTTCTAACCTGTTGCGG (site TGGTGCCCTCC)	1.45
TGGTGTACTTGGGTTCTAACCTGTTGCCT (site TGGAGTACTAG)	0.0346
TGGTGTACTTGGGTTCTAACCTGTTGCCT (site TGGCGTACTAG)	0.426

Sequence	recombinant barcode read abundance (log10)
TGGTGTACTTGGGTTCTAACCTGTTGCCT (site TGGGGTACTAG)	0.143
TGGTGTACTTGGGTTCTAACCTGTTGCCT (site TGGTGTACTAG)	0.461
TGTAAGACTTGGGTTCTAACCTGTTGCAG (site GAACGCTCTAA)	0.0634
TGTAAGACTTGGGTTCTAACCTGTTGCAG (site TGTAAGACTCT)	0.644
TGTAAGACTTGGGTTCTAACCTGTTGCTG (site TGTAAGACTCA)	0.505
TGTAAGACTTGGGTTCTAACCTGTTGCTG (site TGTAAGGCTAA)	0.015
TGTAGAGCTTGGGTTCTAACCTGTTGCCG (site TGTAGAGCTCG)	0.243
TGTAGAGCTTGGGTTCTAACCTGTTGCCG (site TGTCGAGCTCG)	0.483
TGTAGAGCTTGGGTTCTAACCTGTTGCCG (site TGTGGAGCTCG)	0
TGTAGAGCTTGGGTTCTAACCTGTTGCCG (site TGTTGAGCTCG)	0.258
TGTAGATCTTGGGTTCTAACCTGTTGCAT (site TGTAGATCTAT)	0.152
TGTAGATCTTGGGTTCTAACCTGTTGCAT (site TGTTGACCTAT)	0.15
TGTAGTCCTTGGGTTCTAACCTGTTGCTT (site TGTAGTCCTAA)	0.0506
TGTAGTCCTTGGGTTCTAACCTGTTGCTT (site TGTAGTCCTAC)	0.264
TGTAGTCCTTGGGTTCTAACCTGTTGCTT (site TGTAGTCCTAG)	0.187
TGTAGTCCTTGGGTTCTAACCTGTTGCTT (site TGTAGTCCTAT)	0.0117
TGTATAGCTTGGGTTCTAACCTGTTGCTA (site GGTTTAGCTTA)	0.00884
TGTATAGCTTGGGTTCTAACCTGTTGCTA (site TGTATAGCTTA)	0.0299
TGTCAACCTTGGGTTCTAACCTGTTGCCT (site TGTCAAACTAG)	0.346
TGTCAACCTTGGGTTCTAACCTGTTGCCT (site TGTCAACCTAG)	0.998
TGTCAACCTTGGGTTCTAACCTGTTGCCT (site TGTCAAGCTAG)	0.12
TGTCAACCTTGGGTTCTAACCTGTTGCCT (site TGTCAATCTAG)	0

Sequence	recombinant barcode read abundance (log10)
TGTCATGCTTGGGTTCTAACCTGTTGCGT (site CTCACACCTCT)	0.238
TGTCATGCTTGGGTTCTAACCTGTTGCGT (site TGTCATGCTAC)	0.163
TGTCCTGCTTGGGTTCTAACCTGTTGCCT (site AGTCCTGCTAG)	0
TGTCCTGCTTGGGTTCTAACCTGTTGCCT (site CGTCCTGCTAG)	0.167
TGTCCTGCTTGGGTTCTAACCTGTTGCCT (site GGTCCTGCTAG)	0.11
TGTCCTGCTTGGGTTCTAACCTGTTGCCT (site TGTCCTGCTAG)	0.36
TGTCGATCTTGGGTTCTAACCTGTTGCCT (site TGTCAATCTAC)	0.0889
TGTCGATCTTGGGTTCTAACCTGTTGCCT (site TGTCGATCTAG)	0.94
TGTCTAGCTTGGGTTCTAACCTGTTGCGG (site CCAAATCCTAT)	0.208
TGTCTAGCTTGGGTTCTAACCTGTTGCGG (site TGTCTAGCTCC)	0.695
TGTCTATCTTGGGTTCTAACCTGTTGCCT (site TGTCTACCTAG)	0.123
TGTCTATCTTGGGTTCTAACCTGTTGCCT (site TGTCTATCTAG)	0.429
TGTCTGGCTTGGGTTCTAACCTGTTGCCT (site AGTCTGGCTAG)	0.215
TGTCTGGCTTGGGTTCTAACCTGTTGCCT (site TGTCTGGCTAG)	0.0185
TGTCTGTCTTGGGTTCTAACCTGTTGCTA (site TGTCTGTCTAA)	0.0174
TGTCTGTCTTGGGTTCTAACCTGTTGCTA (site TGTCTGTCTTA)	0.0943
TGTGAGTCTTGGGTTCTAACCTGTTGCGT (site TGTGAGTCTAA)	0.347
TGTGAGTCTTGGGTTCTAACCTGTTGCGT (site TGTGAGTCTAC)	2.55
TGTGAGTCTTGGGTTCTAACCTGTTGCGT (site TGTGAGTCTAG)	0.27
TGTGAGTCTTGGGTTCTAACCTGTTGCGT (site TGTGAGTCTAT)	1.42
TGTGCGGCTTGGGTTCTAACCTGTTGCCT (site AGTGCGGCTAG)	0.0331
TGTGCGGCTTGGGTTCTAACCTGTTGCCT (site CGTGCGGCTAG)	0.00936

Sequence	recombinant barcode read abundance (log10)
TGTGCGGCTTGGGTTCTAACCTGTTGCCT (site GGTGCGGCTAG)	0.535
TGTGCGGCTTGGGTTCTAACCTGTTGCCT (site TGTGCGGCTAG)	0.152
TGTTCCTCTTGGGTTCTAACCTGTTGCCT (site TGTACCTCTAG)	0.143
TGTTCCTCTTGGGTTCTAACCTGTTGCCT (site TGTCCCTCTAG)	0.142
TGTTCCTCTTGGGTTCTAACCTGTTGCCT (site TGTGCCTCTAG)	0.114
TGTTCCTCTTGGGTTCTAACCTGTTGCCT (site TGTTCCTCTAG)	0.106
TGTTCTACTTGGGTTCTAACCTGTTGCCG (site TGCTCTACTCA)	0.052
TGTTCTACTTGGGTTCTAACCTGTTGCCG (site TGTTCTACTCG)	0.0964
TGTTCTCCTTGGGTTCTAACCTGTTGCCT (site AGTTCTCCTAG)	0.0134
TGTTCTCCTTGGGTTCTAACCTGTTGCCT (site CGTTCTCCTAG)	0.0608
TGTTCTCCTTGGGTTCTAACCTGTTGCCT (site GGTTCTCCTAG)	0.064
TGTTCTCCTTGGGTTCTAACCTGTTGCCT (site TGTTCTCCTAG)	0
TGTTGACCTTGGGTTCTAACCTGTTGCAT (site TGTAGATCTAT)	0.0346
TGTTGACCTTGGGTTCTAACCTGTTGCAT (site TGTTGACCTAT)	0.329
TTACATGCTTGGGTTCTAACCTGTTGCCT (site AAGATCACTCC)	0.281
TTACATGCTTGGGTTCTAACCTGTTGCCT (site TTACATGCTAG)	1.27
TTAGAGGCTTGGGTTCTAACCTGTTGCCT (site TTAGAGACTAG)	0.363
TTAGAGGCTTGGGTTCTAACCTGTTGCCT (site TTAGAGCCTAG)	0
TTAGAGGCTTGGGTTCTAACCTGTTGCCT (site TTAGAGGCTAG)	1.13
TTAGAGGCTTGGGTTCTAACCTGTTGCCT (site TTAGAGTCTAG)	0.0154
